Read-outs that look alike come from different tables or passages of the source.
What was measured:
patients with HD [1] = conditions: 112.5 mg bid, Week 52
Description: Three variables were calculated: (1) The change from baseline to Week 26 and Week 52 in the sum of the UHDRS-TMS items except the Chorea items, (2) The change from baseline to Week 26 and Week 52 in the sum of the UHDRS-TMS items except the Dystonia items, and (3) The change from baseline to Week 26 and Week 52 in the sum of the UHDRS-TMS items except the Chorea and Dystonia items. These variables were analyzed in the same way as the primary efficacy endpoint except that the variable evaluation at baseline were included in the model instead of baseline UHDRS-TMS.

patients with HD [2] = test system: patients with HD;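 on Change from baseline in mPPT Total Score: modified Physical Performance Test: standardized 9-item rating of physical functional tasks, scored on speed and accuracy, maximum 36, higher score means better performance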;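 on Δ to placebo: mPPT total score, change from baseline: modified Physical Performance Test: standardized 9-item rating of physical functional tasks, scored on speed and accuracy, maximum 36, higher score means better performance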
Description: The mPPT quantifies the patient's performance in physical tasks (Brown 2000). It is a standardized 9-item test (standing static balance, chair rise, lift a book and put it on a shelf, put on and remove a jacket, pick up a penny from floor, turn 360 degrees, 50 feet walk, climb one flight of stairs, climb stairs test (flights up and down)), that measures the patient's performance on functional tasks. Both the speed and accuracy at which the patients complete the items are taken into account during scoring. The maximum score of the test is 36, with higher scores indicating better performance.
The secondary efficacy variable and endpoint, the Modified Physical Performance Test (mPPT), quantifies the patient's performance in physical tasks (Brown 2000). It is a standardized 9-item test that measures the patient's performance on functional tasks. Assistive devices are permitted for the tasks that require a standing position (items 6 to 9). Both the speed and accuracy at which the patients complete the items were taken into account during scoring. The maximum score of the test is 36, with higher scores indicating better performance.

## CCCN1CCC(c2cccc(S(C)(=O)=O)c2)CC1 [pridopidine, 4-[3-(methylsulfonyl)phenyl]-1-propyl-piperidine]
Patients with HD [1]; ALL
  Change from baseline in UHDRS TMS Involuntary Movements, Δ to placebo: 0.57
Patients with HD [1]; Stage 1 BL TFC 11-13
  Change from baseline in UHDRS TMS Excluding Chorea, Δ to placebo: −1.59
  Change from baseline in UHDRS TMS Involuntary Movements, Δ to placebo: 0.8
Patients with HD [2]; 45 mg bid, BL stage 3-5 (TFC 0-6), 26 weeks
  Δ to placebo: mPPT total score, change from baseline: 0.9
Patients with HD [2]; 45 mg bid, BL stage 3-5, 52 weeks
  Δ to placebo: mPPT total score, change from baseline: 1.57
Patients with HD [2]; 45 mg bid, Full Analysis Set, after 52 weeks (FIG. 46a)
  Change from baseline in mPPT Total Score: shows improvement on mPPT score
Patients with HD [2]; 45 mg bid, Full Analysis Set, week 26
  Δ to placebo: mPPT total score, change from baseline: 0.04
Patients with HD [2]; 45 mg bid, Full Analysis Set, week 52
  Δ to placebo: mPPT total score, change from baseline: 0.46
Patients with HD [2]; 45 mg bid, HD1 and HD2 patients, week 26
  Δ to placebo: mPPT total score, change from baseline: −0.24
Patients with HD [2]; 45 mg bid, HD1 and HD2 patients, week 52
  Δ to placebo: mPPT total score, change from baseline: 0.15
Patients with HD [2]; 45 mg bid, HD1 patients, 26 weeks
  Δ to placebo: mPPT total score, change from baseline: −1.31
Patients with HD [2]; 45 mg bid, HD1 patients, 52 weeks
  Δ to placebo: mPPT total score, change from baseline: 0.76
Patients with HD [2]; 45 mg bid, HD2 patients, 26 weeks
  Δ to placebo: mPPT total score, change from baseline: −0.07
Patients with HD [2]; 45 mg bid, HD2 patients, 52 weeks
  Δ to placebo: mPPT total score, change from baseline: −0.39
Patients with HD [2]; 45 mg bid, baseline TFC<7, week 26
  Δ to placebo: mPPT total score, change from baseline: 0.9
Patients with HD [2]; 45 mg bid, baseline TFC<7, week 52
  Δ to placebo: mPPT total score, change from baseline: 1.57
Patients with HD [2]; 67.5 mg bid, BL stage 3-5 (TFC 0-6), 26 weeks
  Δ to placebo: mPPT total score, change from baseline: −0.85
Patients with HD [2]; 67.5 mg bid, BL stage 3-5, 52 weeks
  Δ to placebo: mPPT total score, change from baseline: −1.37
Patients with HD [2]; 67.5 mg bid, Full Analysis Set, week 26
  Δ to placebo: mPPT total score, change from baseline: −0.07
Patients with HD [2]; 67.5 mg bid, Full Analysis Set, week 52
  Δ to placebo: mPPT total score, change from baseline: 0.17
Patients with HD [2]; 67.5 mg bid, HD1 and HD2 patients, week 26
  Δ to placebo: mPPT total score, change from baseline: 0.59
Patients with HD [2]; 67.5 mg bid, HD1 and HD2 patients, week 52
  Δ to placebo: mPPT total score, change from baseline: 1.04
Patients with HD [2]; 67.5 mg bid, HD1 patients, 26 weeks
  Δ to placebo: mPPT total score, change from baseline: −0.2
Patients with HD [2]; 67.5 mg bid, HD1 patients, 52 weeks
  Δ to placebo: mPPT total score, change from baseline: 0.45
Patients with HD [2]; 67.5 mg bid, HD2 patients, 26 weeks
  Δ to placebo: mPPT total score, change from baseline: 0.68
Patients with HD [2]; 67.5 mg bid, HD2 patients, 52 weeks
  Δ to placebo: mPPT total score, change from baseline: 1
Patients with HD [2]; 67.5 mg bid, baseline TFC<7, week 26
  Δ to placebo: mPPT total score, change from baseline: −0.85
Patients with HD [2]; 67.5 mg bid, baseline TFC<7, week 52
  Δ to placebo: mPPT total score, change from baseline: −1.37
Patients with HD [2]; 90 mg bid, BL stage 3-5 (TFC 0-6), 26 weeks
  Δ to placebo: mPPT total score, change from baseline: −0.73
Patients with HD [2]; 90 mg bid, BL stage 3-5, 52 weeks
  Δ to placebo: mPPT total score, change from baseline: −2.73
Patients with HD [2]; 90 mg bid, Full Analysis Set, week 26
  Δ to placebo: mPPT total score, change from baseline: −0.01
Patients with HD [2]; 90 mg bid, Full Analysis Set, week 52
  Δ to placebo: mPPT total score, change from baseline: −0.33
Patients with HD [2]; 90 mg bid, HD1 and HD2 patients, week 26
  Δ to placebo: mPPT total score, change from baseline: 0.46
Patients with HD [2]; 90 mg bid, HD1 and HD2 patients, week 52
  Δ to placebo: mPPT total score, change from baseline: 0.88
Patients with HD [2]; 90 mg bid, HD1 patients, 26 weeks
  Δ to placebo: mPPT total score, change from baseline: 0.81
Patients with HD [2]; 90 mg bid, HD1 patients, 52 weeks
  Δ to placebo: mPPT total score, change from baseline: 1.11
Patients with HD [2]; 90 mg bid, HD2 patients, 26 weeks
  Δ to placebo: mPPT total score, change from baseline: 0.35
Patients with HD [2]; 90 mg bid, HD2 patients, 52 weeks
  Δ to placebo: mPPT total score, change from baseline: 0.71
Patients with HD [2]; 90 mg bid, baseline TFC<7, week 26
  Δ to placebo: mPPT total score, change from baseline: −0.73
Patients with HD [2]; 90 mg bid, baseline TFC<7, week 52
  Δ to placebo: mPPT total score, change from baseline: −2.73
Patients with HD [2]; 112.5 mg bid, BL stage 3-5 (TFC 0-6), 26 weeks
  Δ to placebo: mPPT total score, change from baseline: −0.33
Patients with HD [2]; 112.5 mg bid, BL stage 3-5, 52 weeks
  Δ to placebo: mPPT total score, change from baseline: −0.49
Patients with HD [2]; 112.5 mg bid, Full Analysis Set, week 26
  Δ to placebo: mPPT total score, change from baseline: 0.29
Patients with HD [2]; 112.5 mg bid, Full Analysis Set, week 52
  Δ to placebo: mPPT total score, change from baseline: −0.47
Patients with HD [2]; 112.5 mg bid, HD1 and HD2 patients, week 26
  Δ to placebo: mPPT total score, change from baseline: 0.79
Patients with HD [2]; 112.5 mg bid, HD1 and HD2 patients, week 52
  Δ to placebo: mPPT total score, change from baseline: −0.26
Patients with HD [2]; 112.5 mg bid, HD1 patients, 26 weeks
  Δ to placebo: mPPT total score, change from baseline: 0.03
Patients with HD [2]; 112.5 mg bid, HD1 patients, 52 weeks
  Δ to placebo: mPPT total score, change from baseline: 0.08
Patients with HD [2]; 112.5 mg bid, HD2 patients, 26 weeks
  Δ to placebo: mPPT total score, change from baseline: 0.85
Patients with HD [2]; 112.5 mg bid, HD2 patients, 52 weeks
  Δ to placebo: mPPT total score, change from baseline: −0.65
Patients with HD [2]; 112.5 mg bid, baseline TFC<7, week 26
  Δ to placebo: mPPT total score, change from baseline: −0.33
Patients with HD [2]; 112.5 mg bid, baseline TFC<7, week 52
  Δ to placebo: mPPT total score, change from baseline: −0.49

From patent US11207310B2 (PRILENIA NEUROTHERAPEUTICS LTD., priority 2016, dated 2021)
